The values that follow come from patent publication US20210290610A1, “COMBINATION OF FXR AGONISTS” (priority 2016, published 2021).

Each structure is given as a SMILES string.

The subject of one series is PBC. Particulars: PBC patients; cited from earlier work.
Series [1] relates to STAM Model of Non-alcoholic Steatohepatitis. The series can be described thus: In vivo efficacy study in the STAM model of non-alcoholic steatohepatitis. Also on record: species or system C57BL/6 mice. Particulars: for NAFLD Activity Score (NAS) compared with the STAM-Vehicle group: FIG. 1.1. The text has this: Example: In Vivo Efficacy Study of cenicriviroc in combination with Compound A (“NVP-CH-4”) and Compound B (“NVP-CH-5”) in the STAM Model of Non-alcoholic Steatohepatitis (Treatment period: 6 to 9 wks or 9 to12 wks)
The study involves 14-day-pregnant C57BL/6 mice. NASH was established by a single subcutaneous injection of […] streptozotocin (Sigma, USA) after birth and feeding with a high fat diet (HFD, 57% kcal fat, CLEA Japan, Japan) ad libitum after 4 weeks of age (day 28±2). Randomization of NASH mice into six groups of 12 mice at 6 weeks of age (day 42±2) and six groups of 12 mice at 9 weeks of age (day 63±2), the day before the start of treatment, respectively. NASH animals were dosed from age 6-9 weeks (Study 1), or from age 9-12 weeks (Study 2) with either: vehicle, cenicriviroc, Compound A (“NVP-CH-4”), Compound B (“NVP-CH-5”), cenicriviroc+Compound A or cenicriviroc+Compound B. A non-disease vehicle-control group of 12 mice was included in both Study 1 and Study 2. These animals were fed with a normal diet (CE-2; CLEA Japan) ad libitum.
PK samples were collected and stored at −60° C. Animals were dosed according to the dosing schedule below. Each animal was sacrificed 5 hours after last morning dose on the last day of study treatment (the evening dose of cenicriviroc or vehicle […] that day due to sacrifice).
Dosing: • Cenicriviroc was prepared in 0.5% (w/v) methylcellulose with 1% Tween® 80 in sterile water for injection (USP). • Compound A and Compound B were prepared in 0.5% (w/v) methylcellulose (400 cPs) aqueous solution containing 0.5% (v/v) polysorbate 80, NF, in reverse osmosis water. • In general, cenicriviroc monotherapy was administered twice daily, 12 hours apart (AM and PM). For Compound A or Compound B monotherapy groups, drug was administered once daily in the morning with vehicle alone in the evening (12 hours after the morning dose).
End of Treatment Measurements: Mice were sacrificed at 9 weeks of age (study 1) or at 12 weeks of age (study 2).
The following biochemical assays were performed: Non-fasting blood glucose in whole blood by Life Check (Eidia, Japan); serum ALT by FUJI DRI-CHEM (Fujifilm, Japan); serum triglyceride; serum MCP-1, RANTES (CCLS) and MIP-1α/MIP-1 quantification by a commercial ELISA kit; liver triglyceride by Triglyceride E-test kit (Wako, Japan); liver hydroxyproline quantification by hydrolysis method; histological analyses for liver section; HE staining and estimation of NAFLD Activity score; Sirius-red staining and estimation of fibrosis area (with and without perivascular space subtracted); oil red staining and estimation of fat deposition area; F4/80 immunohistochemistry staining and estimation of inflammation area; alpha-SMA immunohistochemistry staining and estimation of α-SMA positive area Gene expression assays using total RNA from the liver.
Statistical tests were performed using one-way ANOVA followed by Dunnett's test and the Mann-Whitney test, as appropriate, for the multiple group comparisons. P values <0.05 are considered statistically significant.

For series [2], the system named is NASH in adults with liver fibrosis. Particulars: cited from earlier work.
Series [3] concerns nonalcoholic steatohepatitis patients. The following applies: cited from earlier work.
[4] abbreviates: Study 1, treatment week 6-9, CVC 50 mg/kg AM and PM, Compound A 0.1 mg/kg, Compound B 10 mg/kg.
Where [5] appears, read: NASH adults with liver fibrosis, one year.
The mark [6] stands for this setting: Study 2, treatment week 9-12, same doses.

For the molecule `C[C@H](CCC(=O)O)[C@H]1CC[C@H]2[C@@H]3[C@@H](O)C[C@@H]4C[C@H](O)CC[C@]4(C)[C@H]3CC[C@]12C` [UDCA, Ursodeoxycholic acid], the “population that does not respond” value in the series on PBC is 30-40%.
Take `CCCCOCCOc1ccc(-c2ccc3c(c2)/C=C(/C(=O)Nc2ccc([S@@+]([O-])Cc4cncn4CCC)cc2)CCCN3CC(C)C)cc1` [CVC, (S,E)-8-(4-(2-butoxyethoxy)phenyI)-1-(2-methylpropyl)-N-(4-(((1-propyl-1H-imidazol-5-yl)methyl)sulfinyl)phenyl)-1,2,3,4-tetrahydrobenzo[b]azocine-5-carboxamide]: the “NAFLD Activity Score (NAS) compared with the STAM-Vehicle group” value in series [1] (setting [4]) was “significant reductions in NAS”. Besides, in series [2] (setting [5]), the fibrosis entry is “reduction of fibrosis” and the “improvement of NAS” value was “no significant impact”. Also, the adverse effects result in series [2] (patients) is “can induce fatigue or diarrhea in a small part of the patients”.
For `Cn1nc(C(=O)N(Cc2ccccc2)Cc2ccc(C(=O)O)cc2)c2c1-c1cc(Cl)ccc1OC2` [Compound B, 4-((N-benzyl-8-chloro-1-methyl-1,4-dihydrochromeno[4,3-c]pyrazole-3 carboxamido)methyl)benzoic acid], the “NAFLD Activity Score (NAS) compared with the STAM-Vehicle group” value in series [1] (setting [4]) and in series [1] (setting [6]) was “significant reductions in NAS” each time. In addition, in series [1] (Study 1, week 6-9, FIG. 1.2), the “inflammatory cell infiltration score compared with the STAM-Vehicle group” value was “significant reductions in the inflammatory cell infiltration score”.
For the molecule `CC[C@H]1[C@@H](O)[C@@H]2[C@H](CC[C@]3(C)[C@@H]([C@H](C)CCC(=O)O)CC[C@@H]23)[C@@]2(C)CC[C@@H](O)C[C@@H]12` [obeticholic acid, Obeticholic acid], the “safety concerns of long term administration” value in series [3] is “can be associated with pruritus, as well as with increased LDL cholesterol”.
For the molecule `O=C(O)c1cc(F)c2nc(N3C4CCC3CC(OCc3c(-c5ccccc5OC(F)(F)F)noc3C3CC3)C4)sc2c1` (centres unmarked) [Compound A, 2-[3-({5-cyclopropyl-3-[2-(trifluoromethoxy)phenyl]-1,2-oxazol-4-yl}methoxy)-8-azabicyclo[3.2.1]octan-8-yl]-4-fluoro-1,3-benzothiazole-6-carboxylic acid], the “NAFLD Activity Score (NAS) compared with the STAM-Vehicle group” value in series [1] (setting [4]) and in series [1] (setting [6]) was “significant reductions in NAS” in each case.
